Assay results as given in patent publication US4735953A, “Pharmaceutical preparation for learning stimulation and memory improvement” (priority 1986, dated 1988).

Tests used:
[1] = test system: cerebral cortex of rabbits; assay: Asymmetry factor by induced potential in the hearing zone of the cerebral cortex; assay type: in vivo, rabbit
Procedure: In the third series of experiments the effect of the preparation according to the present invention on the functional brain asymmetry was studied. The experiments were carried out on rabbits with electrodes implanted in the brain. The electrodes under nembutal narcosis (40 mg/kg) were implanted strictly symmetrically into the bearing zone of the temporal cortex of the right and left hemispheres on its lateral surface, whereas the indifferent electrode was secured to the nasal bones of a rabbit's skull. The acoustic irritation was applied through earphones. As the acoustic irritation a sound click caused by a square-shaped pulse from an electronic stimulator with a frequency of 0.1-0.2 Hz was used; the click intensity was adjusted within the range of from 5 to 80 Db. The amplification of the taken-off biopotentials was effected on an electroencephalograph; the induced potentials were obtained by means of an analyzer. 100 experiments on 20 animals were thus conducted; the interval between experiments on one animal was 7 days. The amplitude and form of the induced potential were determined. The asymmetry factor (Kas) was calculated by the formula: [formula] Ar --amplitude of the induced potential of the […] hemisphere, μV;
A1 --amplitude of the induced potential of the left hemisphere.
The test preparations were administered hypodermally in the form of 0.5-1.5% aqueous solutions 20 minutes before the beginning of the measurements.

[2] = test system: learning ability of mice in a shuttle chamber; assay: Learning ability of mice in a shuttle chamber; assay type: in vivo, mouse; settings: mice
[3] = test system: learning ability of rats in a shuttle chamber; assay: Active avoidance learning in a shuttle chamber, rats; assay type: in vivo, rat; settings: rats, hypodermally 0.04 mg/kg
Description: (§1) In these experiments rats are taught to avoid an electric shock by escaping into a next chamber communicating with the first chamber by means of a special opening--a door. An electric current is applied to the chamber door consisting of metal plates. A conditional irritator is a light signal together with a sound click. The learning series consisted of 50 combinations. The number of combinations necessary for the animal's learning to escape into another chamber in response to the conditional signal was determined. Five correct responses out of 6 where regarded as the proof of stability of the acquired knowledge and were denoted as a "learning criterion". After 7 days the educational procedure was repeated, and again the number of combinations necessary to acquire the "learning criterion" was determined. In the case of difference between the first and second readings the percentage of retention of the acquired knowledge was calculated.
(§2) In this experiment the effect of the preparation according to the present invention and prior art preparations was separately evaluated for the purpose of comparison on well-learning and on specially selected poorly learning rats. […] To the poorly learning rats the animals were assigned which reached no "learning criterion" in the teaching series of 50 combinations, or, in other words, a stable knowledge of active avoidance was not worked out in them. […] The preparation according to the present invention and the prior art comparison preparations were administered before the first teaching series or thereafter.
(§3) Also studied were the effects produced upon a single and repeated administration of the preparation according to the present invention for 14 days.

[4] = test system: learning ability of rats preliminarily sorted out for poor learning ability; assay: Active avoidance learning in a shuttle chamber, rats sorted out for poor learning ability; assay type: in vivo, rat; settings: poorly learning rats, hypodermally 0.04 mg/kg
Description: as §1, §2, §3

[5] = hypodermally 0.03 mg/kg, 1st day
[6] = hypodermally 0.03 mg/kg, 12 day (retention)
[7] = hypodermally 0.1 mg/kg, 1st day
[8] = hypodermally 0.1 mg/kg, 12 day (retention)

SMILES: COc1ccc2c3c1O[C@H]1C[C@@H](O)C=C[C@@]31CCN(C)C2 [Galantamine]
- Asymmetry factor, Preparation ([1]; hypodermally 3 mg/kg, control 0.26 ± 0.03): 0.19 ± 0.03

SMILES: CNC(=O)Oc1ccc2c(c1)[C@]1(C)CCN(C)[C@@H]1N2C [Physostigmine, physostigmine]
- teaching of animals (in words) ([2]; 0.03 mg/kg): slightly improves
- teaching of animals (in words) ([2]; 0.1 mg/kg): impairs teaching of animals
- % of avoidance reactions, group I [2, 5]: 20%
- % of avoidance reactions, group II [2, 5]: 21%
- % of avoidance reactions, group III [2, 5]: 26%
- % of avoidance reactions, group IV [2, 5]: 35%
- % of avoidance reactions, group V [2, 5]: 49%
- % of avoidance reactions, group VI [2, 5]: 57%
- % of avoidance reactions, group I [2, 6]: 50%
- % of avoidance reactions, group II [2, 6]: 80%
- % of avoidance reactions, group III [2, 6]: 83%
- % of avoidance reactions, group IV [2, 6]: 87%
- % of avoidance reactions, group V [2, 6]: 90%
- % of avoidance reactions, group VI [2, 6]: 89%
- % of avoidance reactions, group I [2, 7]: 18%
- % of avoidance reactions, group II [2, 7]: 4%
- % of avoidance reactions, group III [2, 7]: 7%
- % of avoidance reactions, group IV [2, 7]: 18%
- % of avoidance reactions, group V [2, 7]: 23%
- % of avoidance reactions, group VI [2, 7]: 38%
- % of avoidance reactions, group I [2, 8]: 39%
- % of avoidance reactions, group II [2, 8]: 60%
- % of avoidance reactions, group III [2, 8]: 70%
- % of avoidance reactions, group IV [2, 8]: 70%
- % of avoidance reactions, group V [2, 8]: 71%
- % of avoidance reactions, group VI [2, 8]: 70%
- Number of combinations to reach the "learning criterion" in II teaching series (after 7 days) [3]: 6.1 ± 0.9
- Number of combinations to reach the "learning criterion" in the I teaching series [3]: 21.9 ± 2.5
- Number of non-taught animals in the group [3]: 1/20
- Percentage knowledge retention [3]: 72%
- % of knowledge retention [4]: 10%
- Number of combinations till appearance of "learning criterion", I teaching [4]: 46 ± 3.1
- Number of combinations till appearance of "learning criterion", II-checking of retention of knowledge [4]: 31.4 ± 1.8
- Number of untaught animals in the group [4]: 12/20
- asymmetry factor (in words) [1]: did not change or reduced the factor of asymmetry
- Asymmetry factor, Preparation ([1]; hypodermally 0.04 mg/kg, control 0.22 ± 0.01): 0.11 ± 0.01
